Bridge positions count the residues as written; N and C are the ends. Square brackets hold non-standard residues; d marks the D form. Ends that are not written are not given here. Peptide text beside a SMILES is read from it. * marks the point of attachment. X1 = CC[C@H](C)CCCCC(=O)*; Dab = NCC[C@H](N)C(=O)O
Legend:
Experiment in all cases: microbe, parasite or virus in culture
P. aeruginosa H174 = assay type: cell-based, Pseudomonas aeruginosa; conditions: modified broth microdilution, cation-adjusted Mueller Hinton broth, inoculum 5 × 10^5 CFU/mL, 18 h, quadruplicate; highest concentration tested 512 μg/mL
Procedure: (§1) MICs against a range of clinically important Gram-positive and Gram-negative bacteria strains including methicillin-sensitive Staphylococcus aureus (MSSA) RN4220 epidemic methicillin-resistant S. aureus-15 (EMRSA-15), methicillin-resistant S. aureus USA300 (MRSA USA300), Bacillus cereus, Enterococcus faecalis JH2–2, Escherichia coli K12, Salmonella enterica serovar Typhimurium SL1344, P. aeruginosa PAO1, and hospital isolates of Acinetobacter baummannii were determined in quadruplicate by a modified microdilution broth method [64] with a final bacterial inoculum concentration of 5 × 10^5 CFU/mL utilised as the test organisms. Cation-adjusted Mueller Hinton (MH) broth was innoclated overnight with a single colony of the tested microorganisms, subsequently grown for 16–24 h with shaking at 225 rpm, and further diluted in the same broth to a final concentration of 5 × 10^5 CFU/mL. The bacterial suspension was added to sterile U-bottomed 96-well plates, and the peptides and control antibiotics to be tested were dissolved in sterile distilled water and serially diluted in the wells. The MICs were recorded as the lowest peptide concentration that inhibited growth after incubation for 18 h [65].

[1] = tested on: A. baumannii S15785 OXA-23/0XA-50; assay type: cell-based, Acinetobacter baumannii; conditions: modified broth microdilution, cation-adjusted Mueller Hinton broth, inoculum 5 × 10^5 CFU/mL, 18 h, quadruplicate; highest concentration tested 512 μg/mL
Procedure: as §1

A. baumannii DSMZ 30007 = assay type: cell-based, Acinetobacter baumannii; conditions: modified broth microdilution, cation-adjusted Mueller Hinton broth, inoculum 5 × 10^5 CFU/mL, 18 h, quadruplicate; highest concentration tested 512 μg/mL
Procedure: as §1

A. baumannii IMI/MER-R = assay type: cell-based, Acinetobacter baumannii; conditions: imipenem/meropenem resistant; modified broth microdilution, cation-adjusted Mueller Hinton broth, inoculum 5 × 10^5 CFU/mL, 18 h, quadruplicate; highest concentration tested 512 μg/mL
Procedure: as §1

Sal. Tyhimurium (SL1344) = assay type: cell-based, Salmonella enterica serovar Typhimurium; conditions: modified broth microdilution, cation-adjusted Mueller Hinton broth, inoculum 5 × 10^5 CFU/mL, 18 h, quadruplicate; highest concentration tested 512 μg/mL
Procedure: as §1

P. aeruginosa PAO1 = assay type: cell-based, Pseudomonas aeruginosa; conditions: modified broth microdilution, cation-adjusted Mueller Hinton broth, inoculum 5 × 10^5 CFU/mL, 18 h, quadruplicate; highest concentration tested 512 μg/mL
Procedure: as §1

A. baumannii S27379 Sen = assay type: cell-based, Acinetobacter baumannii; conditions: sensitive hospital isolate; modified broth microdilution, cation-adjusted Mueller Hinton broth, inoculum 5 × 10^5 CFU/mL, 18 h, quadruplicate; highest concentration tested 512 μg/mL
Procedure: as §1

E. coli K12 = assay type: cell-based, Escherichia coli; conditions: modified broth microdilution, cation-adjusted Mueller Hinton broth, inoculum 5 × 10^5 CFU/mL, 18 h, quadruplicate; highest concentration tested 512 μg/mL
Procedure: as §1

S. aureus ATCC 33591 = assay type: cell-based, Staphylococcus aureus; conditions: modified broth microdilution, cation-adjusted Mueller Hinton broth, inoculum 5 × 10^5 CFU/mL, 18 h, quadruplicate; highest concentration tested 512 μg/mL
Procedure: as §1

S. aureus USA300 = assay type: cell-based, Staphylococcus aureus; conditions: modified broth microdilution, cation-adjusted Mueller Hinton broth, inoculum 5 × 10^5 CFU/mL, 18 h, quadruplicate; highest concentration tested 512 μg/mL
Procedure: as §1

Ent. faecalis (JH2–2) = assay type: cell-based, Enterococcus faecalis; conditions: modified broth microdilution, cation-adjusted Mueller Hinton broth, inoculum 5 × 10^5 CFU/mL, 18 h, quadruplicate; highest concentration tested 512 μg/mL
Procedure: as §1

S. aureus MSSA (RN4220) = assay type: cell-based, Staphylococcus aureus; conditions: modified broth microdilution, cation-adjusted Mueller Hinton broth, inoculum 5 × 10^5 CFU/mL, 18 h, quadruplicate; highest concentration tested 512 μg/mL
Procedure: as §1

S. aureus EMRSA-15 = assay type: cell-based, Staphylococcus aureus; conditions: modified broth microdilution, cation-adjusted Mueller Hinton broth, inoculum 5 × 10^5 CFU/mL, 18 h, quadruplicate; highest concentration tested 512 μg/mL
Procedure: as §1

B. cereus = assay type: cell-based, Bacillus cereus; conditions: modified broth microdilution, cation-adjusted Mueller Hinton broth, inoculum 5 × 10^5 CFU/mL, 18 h, quadruplicate; highest concentration tested 512 μg/mL
Procedure: as §1

Row | Molecule | Minimum Inhibitory Concentration, P. aeruginosa H174 (P. aeruginosa H174) [µg/mL] | Minimum Inhibitory Concentration, A. baumannii S15785 OXA-23/0XA-50 [1] [µg/mL] | Minimum Inhibitory Concentration, A. baumannii DSMZ 30007 (A. baumannii DSMZ 30007) [µg/mL] | Minimum Inhibitory Concentration, A. baumannii IMI/MER-R (A. baumannii IMI/MER-R) [µg/mL] | Minimum Inhibitory Concentration, Sal. Tyhimurium (Sal. Tyhimurium (SL1344)) [µg/mL] | Minimum Inhibitory Concentration, P. aeruginosa PAO1 (P. aeruginosa PAO1) [µg/mL] | Minimum Inhibitory Concentration, A. baumannii S27379 Sen (A. baumannii S27379 Sen) [µg/mL] | Minimum Inhibitory Concentration, E. coli K12 (E. coli K12) [µg/mL] | Minimum Inhibitory Concentration, S. aureus ATCC 33591 (S. aureus ATCC 33591) [µg/mL] | Minimum Inhibitory Concentration, S. aureus USA300 (S. aureus USA300) [µg/mL] | Minimum Inhibitory Concentration, Ent. faecalis (Ent. faecalis (JH2–2)) [µg/mL] | Minimum Inhibitory Concentration, S. aureus MSSA (S. aureus MSSA (RN4220)) [µg/mL] | Minimum Inhibitory Concentration, S. aureus EMRSA-15 (S. aureus EMRSA-15) [µg/mL] | Minimum Inhibitory Concentration, B. cereus (B. cereus) [µg/mL]
1 | CC[C@H](C)CCCCC(=O)N[C@@H](CCN)C(=O)N[C@H](C(=O)N[C@@H](CCN)C(=O)N[C@H]1CCNC(=O)[C@H]([C@@H](C)O)NC(=O)[C@H](CCN)NC(=O)[C@H](CCN)NC(=O)[C@H](CC(C)C)NC(=O)[C@@H](Cc2ccccc2)NC(=O)[C@H](CCN)NC1=O)[C@@H](C)O [Polymyxin B] (X1-[Dab]T[Dab][Dab][Dab][dF]L[Dab][Dab]T; lactam 4-C (inferred); N-terminus assumed) | 1 | 0.5 | 1 | 1 | 1 | 2 | 1 | 0.5 | – | – | – | – | – | –
2 | KGLTVKFKVKN [Lub_376] | > 512 | > 512 | > 512 | > 512 | > 512 | > 512 | > 512 | > 512 | > 512 | > 512 | > 512 | > 512 | > 512 | > 512

Reference: PMC8034185, “The rumen eukaryotome is a source of novel antimicrobial peptides with therapeutic potential” (BMC Microbiology, 2021)
